In ChEMBL document CHEMBL3804811 (J Med Chem, 2016):
Activity calls are given as the source filed them. No cut-off for these calls is given here.

Tests used:
[1] = Inhibition of SULU1 (unknown origin) in presence of gamma33-ATP; design: species or system Homo sapiens
[2] = Oral bioavailability in Harlan nu/nu mouse at 10 mg/kg administered as single dose by LC-MS/MS analysis; assay type: ADME, organism-based; conditions: in vivo
[3] = AUC (infinity) in Harlan nu/nu mouse at 10 mg/kg, iv administered as single dose by LC-MS/MS analysis; assay type: ADME, organism-based; design: dose 10 mg/kg, time infinity, route intravenous; conditions: in vivo
[4] = Clearance in Harlan nu/nu mouse at 10 mg/kg, iv administered as single dose by LC-MS/MS analysis; assay type: ADME, organism-based; conditions: in vivo
[5] = Clearance in Beagle dog at 10 mg/kg, iv administered as single dose by LC-MS/MS analysis; assay type: ADME, organism-based, Canis lupus familiaris; conditions: in vivo
[6] = Cmax in Harlan nu/nu mouse at 10 mg/kg, po administered as single dose by LC-MS/MS analysis; assay type: ADME, organism-based; design: dose 10 mg/kg, route oral; conditions: in vivo
[7] = Half life in Beagle dog at 10 mg/kg, po administered as single dose by LC-MS/MS analysis; assay type: ADME, organism-based, Canis lupus familiaris; conditions: in vivo
[8] = tested on: KM12; experiment: Antiproliferative activity against human KM12 cells expressing TRKA protein incubated for 72 hrs by cell titer-glo assay; conditions: KM12, 72 h
[9] = molecular target: T1, Eukaryotic translation initiation factor 2-alpha kinase 3 (Homo sapiens, UniProt Q9NZJ5); experiment: Inhibition of PERK (unknown origin) in presence of gamma33-ATP
T1 sequence (Q9NZJ5 whole entry): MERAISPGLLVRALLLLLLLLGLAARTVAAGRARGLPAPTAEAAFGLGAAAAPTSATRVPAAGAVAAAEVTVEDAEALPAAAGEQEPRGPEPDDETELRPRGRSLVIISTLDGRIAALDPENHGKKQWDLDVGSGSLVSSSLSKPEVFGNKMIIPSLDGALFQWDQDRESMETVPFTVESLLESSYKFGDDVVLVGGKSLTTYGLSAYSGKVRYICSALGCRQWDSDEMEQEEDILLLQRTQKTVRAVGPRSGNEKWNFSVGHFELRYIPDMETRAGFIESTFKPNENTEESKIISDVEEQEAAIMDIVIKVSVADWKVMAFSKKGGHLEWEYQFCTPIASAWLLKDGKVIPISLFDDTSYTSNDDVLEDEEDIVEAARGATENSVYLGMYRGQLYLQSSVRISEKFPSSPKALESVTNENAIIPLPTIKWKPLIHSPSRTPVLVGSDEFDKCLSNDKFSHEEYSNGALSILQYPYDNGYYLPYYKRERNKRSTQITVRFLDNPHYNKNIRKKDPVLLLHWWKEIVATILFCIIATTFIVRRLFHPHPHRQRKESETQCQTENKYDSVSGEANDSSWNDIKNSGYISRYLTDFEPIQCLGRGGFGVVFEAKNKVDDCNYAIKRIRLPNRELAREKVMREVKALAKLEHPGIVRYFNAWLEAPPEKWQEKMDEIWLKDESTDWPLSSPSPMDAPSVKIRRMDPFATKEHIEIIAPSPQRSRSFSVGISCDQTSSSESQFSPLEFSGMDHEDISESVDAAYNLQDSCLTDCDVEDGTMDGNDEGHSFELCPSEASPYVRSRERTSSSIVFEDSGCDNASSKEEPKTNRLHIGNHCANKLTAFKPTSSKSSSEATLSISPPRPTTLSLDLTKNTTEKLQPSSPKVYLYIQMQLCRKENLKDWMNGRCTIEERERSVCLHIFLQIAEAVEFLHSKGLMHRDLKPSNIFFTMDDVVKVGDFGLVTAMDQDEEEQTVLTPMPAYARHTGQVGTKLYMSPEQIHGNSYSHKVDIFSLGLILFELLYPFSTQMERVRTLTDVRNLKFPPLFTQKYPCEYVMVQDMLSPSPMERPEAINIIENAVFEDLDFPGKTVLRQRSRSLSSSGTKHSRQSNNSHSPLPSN

[10] = Antiproliferative activity against human KARPAS299 cells incubated for 72 hrs by cell titer-glo assay; conditions: KARPAS-299, 72 h
[11] = Half life in Harlan nu/nu mouse at 10 mg/kg, po administered as single dose by LC-MS/MS analysis; assay type: ADME, organism-based; conditions: in vivo
[12] = Cmax in Beagle dog at 10 mg/kg, iv administered as single dose by LC-MS/MS analysis; assay type: ADME, organism-based, Canis lupus familiaris; design: dose 10 mg/kg, route intravenous; conditions: in vivo
[13] = AUC (infinity) in Sprague-Dawley rat at 10 mg/kg, po administered as single dose by LC-MS/MS analysis; assay type: ADME, organism-based; design: dose 10 mg/kg, time infinity, route oral; conditions: in vivo
[14] = Oral bioavailability in Beagle dog at 10 mg/kg administered as single dose by LC-MS/MS analysis; assay type: ADME, organism-based, Canis lupus familiaris; conditions: in vivo
[15] = Ratio of drug level in brain to plasma in Harlan nu/nu mouse at 240 mg/kg, po administered per day for 2 weeks measured 6 hrs post last dose by LC-MS/MS analysis; assay type: ADME, organism-based; conditions: read-out: BPR
[16] = Tmax in Sprague-Dawley rat at 10 mg/kg, po administered as single dose by LC-MS/MS analysis; assay type: ADME, organism-based; conditions: in vivo
[17] = tested on: NCI-H2228; experiment: Antiproliferative activity against human NCI-H2228 cells expressing ALK protein incubated for 72 hrs by cell titer-glo assay; conditions: NCI-H2228, 72 h
[18] = Apparent permeability from basolateral to apical side in human Caco2 cells at 2.5 mg/ml after 2 hrs by reversed-phase HPLC method; assay type: ADME, cell-based; conditions: Caco-2
[19] = Half life in Harlan nu/nu mouse at 10 mg/kg, iv administered as single dose by LC-MS/MS analysis; assay type: ADME, organism-based; conditions: in vivo
[20] = Half life in Beagle dog at 10 mg/kg, iv administered as single dose by LC-MS/MS analysis; assay type: ADME, organism-based, Canis lupus familiaris; conditions: in vivo
[21] = molecular target: Vascular endothelial growth factor receptor 2 (Homo sapiens, UniProt P35968); experiment: Inhibition of VEGFR2 (unknown origin) in presence of gamma33-ATP
[22] = Cytotoxicity against mouse IL-3 dependent BA/F3 cells incubated for 72 hrs by cell titer-glo assay; assay type: cell-based; conditions: BaF3, 72 h
[23] = tested on: NCI-H2228; conditions: Homo sapiens
Description: Antitumor activity against human NCI-H2228 cells xenografted in athymic nu/nu mouse assessed as tumor growth inhibition at 30 to 60 mg/kg, po bid administered for 10 days

Vascular endothelial growth factor receptor 2, sequence (P35968 whole entry): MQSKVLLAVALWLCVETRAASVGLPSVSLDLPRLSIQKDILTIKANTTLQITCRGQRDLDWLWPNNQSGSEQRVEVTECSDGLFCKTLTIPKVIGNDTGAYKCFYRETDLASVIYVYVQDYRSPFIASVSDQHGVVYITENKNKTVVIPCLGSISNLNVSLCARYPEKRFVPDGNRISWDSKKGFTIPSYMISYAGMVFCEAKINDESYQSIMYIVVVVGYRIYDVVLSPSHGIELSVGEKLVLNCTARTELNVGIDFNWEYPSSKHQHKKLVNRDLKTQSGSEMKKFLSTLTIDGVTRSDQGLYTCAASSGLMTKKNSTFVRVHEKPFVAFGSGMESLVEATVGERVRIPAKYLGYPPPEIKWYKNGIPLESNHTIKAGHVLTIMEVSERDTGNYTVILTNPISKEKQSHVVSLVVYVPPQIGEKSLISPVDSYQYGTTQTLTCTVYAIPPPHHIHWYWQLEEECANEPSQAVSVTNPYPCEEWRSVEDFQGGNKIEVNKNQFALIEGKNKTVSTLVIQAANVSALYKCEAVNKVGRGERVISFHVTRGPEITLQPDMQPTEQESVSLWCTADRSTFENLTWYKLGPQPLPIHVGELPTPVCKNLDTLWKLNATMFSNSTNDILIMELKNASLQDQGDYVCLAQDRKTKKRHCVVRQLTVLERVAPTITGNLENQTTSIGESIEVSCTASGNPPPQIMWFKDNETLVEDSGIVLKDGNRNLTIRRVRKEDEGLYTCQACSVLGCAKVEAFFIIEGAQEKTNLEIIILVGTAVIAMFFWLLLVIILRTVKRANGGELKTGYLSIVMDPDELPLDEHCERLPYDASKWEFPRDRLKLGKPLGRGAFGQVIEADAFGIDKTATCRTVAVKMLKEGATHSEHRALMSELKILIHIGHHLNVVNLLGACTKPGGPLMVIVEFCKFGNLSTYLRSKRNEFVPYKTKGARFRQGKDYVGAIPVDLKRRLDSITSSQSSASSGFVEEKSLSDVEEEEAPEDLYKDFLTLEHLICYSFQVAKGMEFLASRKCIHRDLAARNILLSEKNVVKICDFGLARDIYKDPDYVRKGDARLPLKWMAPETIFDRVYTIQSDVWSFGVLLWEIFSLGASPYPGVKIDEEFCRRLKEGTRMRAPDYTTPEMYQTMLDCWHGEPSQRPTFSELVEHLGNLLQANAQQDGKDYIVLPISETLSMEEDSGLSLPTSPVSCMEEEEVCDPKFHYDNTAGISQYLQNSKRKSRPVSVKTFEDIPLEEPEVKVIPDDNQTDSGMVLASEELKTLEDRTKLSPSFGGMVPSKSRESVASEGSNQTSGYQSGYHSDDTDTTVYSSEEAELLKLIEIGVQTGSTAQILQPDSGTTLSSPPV

IC50 [1]: > 10 µM
bioavailability [2]: 77%
AUC(0-inf) [3]: 19.6 µM·h
clearance [4]: 0.81 L/h/kg
clearance [5]: 1.05 L/h/kg
Cmax [6]: 1.33 µM
half-life [7]: 15.2 h
IC50 [9]: > 10 µM
half-life [11]: 2.94 h
Cmax [12]: 8.6 µM
AUC(0-inf) [13]: 5.13 µM·h
bioavailability [14]: 32%
Kp at 6 h [15]: 0.43
Tmax [16]: 3.08 h
IC50 [17]: 0.068 µM
Papp B→A at 2 h, 2.5 mg/ml [18]: 30 nm/s
half-life [19]: 3.59 h
half-life [20]: 11.9 h
IC50 [21]: > 1 µM
SMILES: CN1CCN(c2ccc(C(=O)Nc3n[nH]c4ccc(Cc5cc(F)cc(F)c5)cc34)c(NC3CCOCC3)c2)CC1 [ENTRECTINIB]
IC50 [8]: 0.017 µM
IC50 [10]: 0.031 µM
IC50 [22]: 2.1 µM
TGI [23]: Active
